Test results published in patent US12030878B2 (BRISTOL-MYERS SQUIBB COMPANY, priority 2017, dated 2024).

How the values were obtained:
Assay type in all cases: cell-based
[1] = molecular target: T1, human TLR8 (Homo sapiens, UniProt Q9NR97); experiment: TLR8 inhibition reporter assay (HEK-Blue SEAP); details: HEK-Blue cells overexpressing human TLR8, stimulated with R848 15.9 μM, 22 hour incubation
T1 construct: host or cells: HEK-Blue cells
T1 sequence (Q9NR97 27-1041): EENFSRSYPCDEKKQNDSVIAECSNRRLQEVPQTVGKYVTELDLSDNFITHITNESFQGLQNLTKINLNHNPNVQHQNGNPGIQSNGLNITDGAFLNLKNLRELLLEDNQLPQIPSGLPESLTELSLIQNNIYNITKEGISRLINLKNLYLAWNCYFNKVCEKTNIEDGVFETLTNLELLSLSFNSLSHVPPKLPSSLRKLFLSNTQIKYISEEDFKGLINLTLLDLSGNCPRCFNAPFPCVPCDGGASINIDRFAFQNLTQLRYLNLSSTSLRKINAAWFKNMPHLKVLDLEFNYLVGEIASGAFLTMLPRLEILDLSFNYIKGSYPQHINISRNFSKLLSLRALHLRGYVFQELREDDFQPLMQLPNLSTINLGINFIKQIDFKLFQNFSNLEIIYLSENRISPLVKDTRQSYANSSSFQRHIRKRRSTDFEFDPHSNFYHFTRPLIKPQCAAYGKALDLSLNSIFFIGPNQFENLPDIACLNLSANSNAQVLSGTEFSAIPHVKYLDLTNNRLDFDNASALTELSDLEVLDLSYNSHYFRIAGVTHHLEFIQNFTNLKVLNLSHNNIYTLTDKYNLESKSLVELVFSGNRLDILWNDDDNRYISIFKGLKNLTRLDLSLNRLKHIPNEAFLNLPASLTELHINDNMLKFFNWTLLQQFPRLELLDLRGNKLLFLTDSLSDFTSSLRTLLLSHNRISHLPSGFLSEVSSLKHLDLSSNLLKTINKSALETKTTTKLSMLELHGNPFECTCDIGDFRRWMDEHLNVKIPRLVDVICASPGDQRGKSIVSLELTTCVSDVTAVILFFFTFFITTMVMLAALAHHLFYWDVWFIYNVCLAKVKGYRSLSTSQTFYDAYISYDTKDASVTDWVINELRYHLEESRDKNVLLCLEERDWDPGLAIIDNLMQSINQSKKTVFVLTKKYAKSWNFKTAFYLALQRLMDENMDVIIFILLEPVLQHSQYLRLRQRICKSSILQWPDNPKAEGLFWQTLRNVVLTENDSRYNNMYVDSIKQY
Summary of the method: (§1)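 Test compounds, final 0.05 nM–50 μM, pre-treat HEK-Blue human TLR7, TLR8 or TLR9 reporter cells before agonist addition (TLR8 R848 15.9 μM; TLR7 gardiquimod 7.5 μM; TLR9 ODN2006 5 nM). Incubation runs 22 h, 37 °C. SEAP detection gives percent inhibition against DMSO and reference-inhibitor controls.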

[2] = molecular target: T2, human TLR7 (Homo sapiens, UniProt Q9NYK1); experiment: TLR7 inhibition reporter assay (HEK-Blue SEAP); details: HEK-Blue cells overexpressing human TLR7, stimulated with gardiquimod 7.5 μM, 22 hour incubation
T2 construct: host or cells: HEK-Blue cells
T2 sequence (Q9NYK1 27-1049): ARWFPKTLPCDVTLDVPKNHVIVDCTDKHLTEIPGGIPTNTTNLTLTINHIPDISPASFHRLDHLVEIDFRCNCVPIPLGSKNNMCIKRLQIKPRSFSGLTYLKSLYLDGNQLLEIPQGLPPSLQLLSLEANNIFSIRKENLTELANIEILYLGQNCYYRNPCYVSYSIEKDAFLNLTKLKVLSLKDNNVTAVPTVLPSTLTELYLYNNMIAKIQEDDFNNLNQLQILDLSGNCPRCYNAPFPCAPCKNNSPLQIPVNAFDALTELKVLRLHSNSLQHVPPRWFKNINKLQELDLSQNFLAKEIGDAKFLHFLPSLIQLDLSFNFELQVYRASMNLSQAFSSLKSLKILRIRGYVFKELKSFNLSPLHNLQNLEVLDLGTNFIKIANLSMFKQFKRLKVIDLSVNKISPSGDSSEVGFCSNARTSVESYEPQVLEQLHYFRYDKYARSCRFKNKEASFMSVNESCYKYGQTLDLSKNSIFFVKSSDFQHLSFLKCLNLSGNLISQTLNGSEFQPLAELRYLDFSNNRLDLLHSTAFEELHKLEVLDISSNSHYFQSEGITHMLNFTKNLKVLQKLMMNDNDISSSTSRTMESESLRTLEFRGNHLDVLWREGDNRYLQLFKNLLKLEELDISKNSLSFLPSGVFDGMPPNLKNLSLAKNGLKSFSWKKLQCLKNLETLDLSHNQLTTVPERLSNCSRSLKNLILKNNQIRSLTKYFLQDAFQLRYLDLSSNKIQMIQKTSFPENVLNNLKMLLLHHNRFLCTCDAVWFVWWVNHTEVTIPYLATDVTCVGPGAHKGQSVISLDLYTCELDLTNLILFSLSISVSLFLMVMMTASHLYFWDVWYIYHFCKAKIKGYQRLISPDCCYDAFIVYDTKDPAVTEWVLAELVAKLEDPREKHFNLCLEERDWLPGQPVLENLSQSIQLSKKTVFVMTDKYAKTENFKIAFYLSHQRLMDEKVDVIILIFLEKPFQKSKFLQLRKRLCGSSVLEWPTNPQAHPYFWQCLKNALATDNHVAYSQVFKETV
Summary of the method: as §1

[3] = molecular target: T3, human TLR9 (Homo sapiens, UniProt Q9NR96); experiment: TLR9 inhibition reporter assay (HEK-Blue SEAP); details: HEK-Blue cells overexpressing human TLR9, stimulated with ODN2006 5 nM, 22 hour incubation
T3 construct: host or cells: HEK-Blue cells
T3 sequence (Q9NR96 26-1032): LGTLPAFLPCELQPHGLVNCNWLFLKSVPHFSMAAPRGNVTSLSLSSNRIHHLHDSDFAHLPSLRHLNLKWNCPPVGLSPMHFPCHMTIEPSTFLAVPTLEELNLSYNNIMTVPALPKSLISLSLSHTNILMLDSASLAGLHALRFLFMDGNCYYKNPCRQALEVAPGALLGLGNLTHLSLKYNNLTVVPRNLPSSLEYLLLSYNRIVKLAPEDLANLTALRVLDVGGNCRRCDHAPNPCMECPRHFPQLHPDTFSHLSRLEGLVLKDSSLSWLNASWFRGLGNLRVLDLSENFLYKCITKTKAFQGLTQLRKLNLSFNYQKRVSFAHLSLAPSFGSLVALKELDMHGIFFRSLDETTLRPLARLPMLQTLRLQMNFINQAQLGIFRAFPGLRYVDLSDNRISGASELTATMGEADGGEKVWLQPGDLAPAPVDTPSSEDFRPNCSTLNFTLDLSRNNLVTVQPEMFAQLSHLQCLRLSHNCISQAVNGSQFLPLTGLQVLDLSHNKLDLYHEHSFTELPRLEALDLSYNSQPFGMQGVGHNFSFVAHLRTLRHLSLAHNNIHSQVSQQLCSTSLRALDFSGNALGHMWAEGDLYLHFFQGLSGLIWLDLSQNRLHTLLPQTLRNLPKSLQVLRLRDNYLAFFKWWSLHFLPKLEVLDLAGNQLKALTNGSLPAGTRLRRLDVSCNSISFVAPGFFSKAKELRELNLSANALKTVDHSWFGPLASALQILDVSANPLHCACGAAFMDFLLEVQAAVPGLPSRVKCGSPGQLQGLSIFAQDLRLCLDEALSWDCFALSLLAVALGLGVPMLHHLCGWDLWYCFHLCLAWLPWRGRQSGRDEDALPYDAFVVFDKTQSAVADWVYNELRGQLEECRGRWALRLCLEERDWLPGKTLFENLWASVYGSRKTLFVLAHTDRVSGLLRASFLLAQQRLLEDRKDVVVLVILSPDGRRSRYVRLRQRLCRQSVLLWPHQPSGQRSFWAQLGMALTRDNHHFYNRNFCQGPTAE
Summary of the method: as §1

Row | Compound | IC50 [1] [nM] | IC50 [2] [nM] | IC50 [3] [nM]
1 | COc1ccc(-c2[nH]c3ccc(OCC(=O)NCC4(O)CCN(C)CC4)cc3c2C(C)C)cc1OC [Example 133, 2-((2-(3,4-dimethoxyphenyl)-3-isopropyl-1H-indol-5-yl)oxy)-N-((4-hydroxy-1-methylpiperidin-4-yl)methyl)acetamide] | 19.7 | 557 | 861
2 | COc1ccc(-c2[nH]c3ccc(OCC(=O)N4CCC[C@H](N)C4)cc3c2C(C)C)cc1OC [Example 120, (S)-1-(3-aminopiperidin-1-yl)-2-((2-(3,4-dimethoxyphenyl)-3-isopropyl-1H-indol-5-yl)oxy)ethan-1-one] | 46.9 | 95.5 | 2660
3 | COc1ccc(-c2[nH]c3ccc(OCC(=O)NC[C@H]4CCNC4)cc3c2C(C)C)cc1OC [Example 119, (S)-2-((2-(3,4-dimethoxyphenyl)-3-isopropyl-1H-indol-5-yl)oxy)-N-(pyrrolidin-3-ylmethyl)acetamide] | 177 | 109 | 2700
4 | Cc1cc(-c2[nH]c3ccc(OCC4CCN(CC(C)(C)O)CC4)cc3c2C(C)C)cn(C)c1=O [Example 25, 5-(5-((1-(2-hydroxy-2-methylpropyl)piperidin-4-yl)methoxy)-3-isopropyl-1H-indol-2-yl)-1,3-dimethylpyridin-2(1H)-one] | 14 | 115 | 11500
5 | COc1ccc(-c2[nH]c3ccc(OCC(=O)N4CCC(OC5CCNCC5)CC4)cc3c2C(C)C)cc1OC [Example 138, 2-((2-(3,4-dimethoxyphenyl)-3-isopropyl-1H-indol-5-yl)oxy)-1-(4-(piperidin-4-yloxy)piperidin-1-yl)ethan-1-one] | 24.7 | 281 | 1920
6 | CCc1c(-c2ccnc(C)c2)[nH]c2ccc(OC3CCN(C(C)C)C3)cc12 (stereo not drawn) [Example 190, 3-ethyl-5-((1-isopropylpyrrolidin-3-yl)oxy)-2-(2-methylpyridin-4-yl)-1H-indole] | 118 | 954 | 1220
7 | Cc1cc(-c2[nH]c3ccc(OCC4CN(C(=O)CN(C)C)C4)cc3c2C(C)C)cn2ncnc12 [Example 107, 2-(dimethylamino)-1-(3-(((3-isopropyl-2-(8-methyl-[1,2,4]triazolo[1,5-a]pyridin-6-yl)-1H-indol-5-yl)oxy)methyl)azetidin-1-yl) ethan-1-one] | 9.4 | 0.6 | 3160
8 | Cc1c(-c2[nH]c3ccc(OCC4CCN(C(=O)CN(C)C)CC4)cc3c2C(C)C)cn(C)c(=O)c1C [Example 103, 5-(5-((1-(dimethylglycyl)piperidin-4-yl)methoxy)-3-isopropyl-1H-indol-2-yl)-1,3,4-trimethylpyridin-2(1H)-one] | 14.9 | 12.3 | 5400

Stronger by IC50 [1], values ahead:

Row | IC50 [1] [nM] | IC50 [2] [nM] | IC50 [3] [nM] | Compound
9 | 6.5 | 166 | 1080 | CCc1c(-c2ccnc(C)c2)[nH]c2ccc(OC3CCN(C)CC3)cc12 [Example 189, 3-ethyl-5-((1-methylpiperidin-4-yl)oxy)-2-(2-methylpyridin-4-yl)-1H-indole]
10 | 4.7 | 1.2 | 2620 | Cc1cc(-c2[nH]c3ccc(OCC4CN(C5COC5)C4)cc3c2C(C)C)cn2ncnc12 [Example 60, 6-(3-isopropyl-5-((1-(oxetan-3-yl)azetidin-3-yl)methoxy)-1H-indol-2-yl)-8-methyl-[1,2,4]triazolo[1,5-a]pyridine]
11 | 3 | 4.3 | 300 | Cc1cc(-c2[nH]c3ccc(OCC4CCN(CC(C)(C)O)CC4)cc3c2C(C)C)cc(C)n1 [Example 24, 1-(4-(((2-(2,6-dimethylpyridin-4-yl)-3-isopropyl-1H-indol-5-yl)oxy)methyl)piperidin-1-yl)-2-methylpropan-2-ol]
12 | 9 | 146 | 1810 | CCc1c(-c2ccnc(C)c2)[nH]c2ccc(OC3CCNCC3)cc12 [Example 163, 3-ethyl-2-(2-methylpyridin-4-yl)-5-(piperidin-4-yloxy)-1H-indole]
13 | 5.1 | 1.4 | 2440 | Cc1cc(-c2[nH]c3ccc(OCC4CN(C(C)C)C4)cc3c2C(C)C)cn2ncnc12 [Example 58, 6-(3-isopropyl-5-((1-isopropylazetidin-3-yl)methoxy)-1H-indol-2-yl)-8-methyl-[1,2,4] triazolo[1,5-a]pyridine]
14 | 2.5 | 3.8 | 359 | Cc1cc(-c2[nH]c3ccc(OCC4CCN(CCO)CC4)cc3c2C(C)C)cc(C)n1 [Example 71, 2-(4-(((2-(2,6-dimethylpyridin-4-yl)-3-isopropyl-H-indol-5-yl)oxy)methyl)piperidin-1-yl)ethan-1-ol]
15 | 1.6 | 1 | 2140 | Cc1cc(-c2[nH]c3ccc(OCCN4CCCC4)cc3c2C(C)C)cn2ncnc12 [Example 2, 6-(3-isopropyl-5-(2-(pyrrolidin-1-yl)ethoxy)-1H-indol-2-yl)-8-methyl-[1,2,4]triazolo[1,5-a]pyridine]
